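Assay format: 96-well plates, 48-hour exposure. GI50 marks 50% less growth.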 The source made the active and inactive calls. Rule as the data show it: active = GI50 up to about 1.1 µM and inactive = higher.
Legend:
Assay in all cases: inhibition of tumour cell growth, NCI panel, 48 h
[1] = test system: IGROV-1
[2] = test system: HCT-116
[3] = test system: SW-620
[4] = test system: SF-539
[5] = test system: RXF 393
[6] = test system: KM12
[7] = test system: SK-MEL-5
[8] = test system: CAKI-1
[9] = test system: SK-OV-3
[10] = test system: UACC-62
[11] = test system: UACC-257
[12] = test system: OVCAR-3
[13] = test system: NCI-H460
[14] = test system: SNB-19
[15] = test system: RPMI-8226
[16] = test system: EKVX
[17] = test system: SK-MEL-2
[18] = test system: SF-268
[19] = test system: OVCAR-5
[20] = test system: OVCAR-4

Measured: GI50

NC(CCc1ncc(C(=O)O)s1)C(=O)O (configuration not stated)
inactive: [1] > 100 µM | [2] > 100 µM | [3] > 100 µM | [4] > 100 µM | [5] > 100 µM | [6] > 100 µM | [7] > 100 µM | [8] > 100 µM | [9] > 100 µM | [10] > 100 µM | [11] > 100 µM | [12] > 100 µM | [13] > 100 µM | [14] > 10 µM | [15] > 100 µM | [16] > 100 µM

CCOC(=O)N1CCc2cc(OC)c(OC)cc2/C1=C\c1ccc(OC)c(OC)c1
inactive: [17] 12.1 µM | [1] 45.5 µM | [2] 21.9 µM | [3] 32.7 µM | [18] 37.8 µM | [19] 38.3 µM | [4] 23.2 µM | [5] 17.1 µM | [6] 29.6 µM | [9] 54 µM | [10] 22.9 µM | [11] 23.6 µM | [12] 26 µM | [14] 39.2 µM | [15] 24.4 µM | [16] 28.1 µM

CCOC1=NC(C(F)(F)F)(C(F)(F)F)N=C(/N=C(/N)N(C)C(C(C)C)P(=O)(OC(C)C)OC(C)C)O1 (configuration not stated)
inactive: [17] 91.4 µM | [1] 69.8 µM | [2] 82.2 µM | [3] 49.5 µM | [18] 48.4 µM | [19] > 100 µM | [4] > 100 µM | [5] 41 µM | [6] 78.2 µM | [7] 59.8 µM | [8] > 100 µM | [9] > 100 µM | [10] 54.7 µM | [11] 70.3 µM | [12] 67.6 µM | [13] > 100 µM | [14] > 100 µM | [15] 45.9 µM | [16] 52 µM

COC(OC)c1cccc2c1C(=O)CCC1(O)c3ccccc3C1C2 (configuration not stated)
inactive: [20] > 100 µM | [17] > 100 µM | [1] > 100 µM | [2] 33.7 µM | [3] > 100 µM | [18] > 100 µM | [19] > 100 µM | [4] > 100 µM | [6] 74 µM | [7] > 100 µM | [9] > 100 µM | [10] > 100 µM | [11] 84.1 µM | [12] 7.52 µM | [14] > 100 µM | [15] 12.2 µM | [16] > 100 µM

CCOC(O)(NC(=O)C(C(F)(F)F)C(F)(F)F)C(F)(F)F (configuration not stated)
inactive: [17] > 100 µM | [1] > 100 µM | [2] > 100 µM | [3] > 100 µM | [18] > 100 µM | [19] > 100 µM | [4] > 100 µM | [5] > 100 µM | [7] > 100 µM | [11] > 100 µM | [14] > 100 µM | [15] > 100 µM | [16] > 100 µM

[N-]=[N+]=NC(c1cn(C2CC(O)C(CO)O2)c(=O)[nH]c1=O)C(Br)I (configuration not stated)
inactive: [17] > 100 µM | [1] > 100 µM | [2] > 100 µM | [3] > 100 µM | [19] > 100 µM | [4] > 100 µM | [5] > 100 µM | [6] > 100 µM | [7] > 100 µM | [8] > 100 µM | [9] > 100 µM | [10] > 100 µM | [12] > 100 µM | [13] > 100 µM | [14] > 100 µM | [15] > 100 µM | [16] > 100 µM

CC(C)CNC(=O)Cn1c2c(c3ccccc31)CCCC2
inactive: [20] 35.4 µM | [17] > 100 µM | [1] 14.9 µM | [2] 27.8 µM | [3] > 100 µM | [18] 37.5 µM | [19] > 100 µM | [4] > 100 µM | [7] 64.7 µM | [8] 79.3 µM | [9] 23.7 µM | [10] 50.1 µM | [11] > 100 µM | [12] 39 µM | [13] 64.1 µM | [14] 85.3 µM | [15] 40.6 µM | [16] 71 µM

CCOc1ccc(NC(=O)/C(=C\c2ccc(C)cc2)C(C)=O)cc1
inactive: [20] > 100 µM | [17] > 100 µM | [1] > 100 µM | [2] > 100 µM | [3] > 100 µM | [18] > 100 µM | [19] > 100 µM | [4] > 100 µM | [7] > 100 µM | [8] > 100 µM | [9] > 100 µM | [10] > 100 µM | [11] > 100 µM | [12] > 100 µM | [14] > 100 µM | [15] > 100 µM | [16] > 100 µM

Cc1cccc(NC(=O)/C=C/c2ccc(N(CCC#N)CCC#N)cc2C)c1
inactive: [20] > 100 µM | [17] > 100 µM | [1] > 100 µM | [2] > 100 µM | [3] > 100 µM | [18] 81.5 µM | [19] > 100 µM | [4] > 100 µM | [6] > 100 µM | [7] > 100 µM | [8] > 100 µM | [9] > 100 µM | [10] 28 µM | [11] > 100 µM | [12] > 100 µM | [13] > 100 µM | [14] > 100 µM | [15] > 100 µM | [16] > 100 µM

COc1ccc(C2NC(N)=C(C#N)C3=C2C(C)CCC3)cc1OC (configuration not stated)
inactive: [17] > 100 µM | [1] 15.5 µM | [2] > 100 µM | [3] > 100 µM | [18] > 100 µM | [19] > 100 µM | [4] 35.2 µM | [5] > 100 µM | [6] 63.5 µM | [7] 24.2 µM | [8] > 100 µM | [9] 75.3 µM | [10] 56 µM | [11] 43.5 µM | [12] 31.7 µM | [14] > 100 µM | [15] 10.2 µM | [16] 33.4 µM

O=C(c1ccccc1)c1c(CC(O)c2ccccn2)n(C(=O)c2ccccc2)c2ccccc12 (configuration not stated)
inactive: [20] 21.8 µM | [17] 14.9 µM | [1] 23.7 µM | [2] 14 µM | [3] 31.4 µM | [18] 28.3 µM | [19] 20.7 µM | [4] 16.7 µM | [6] 28.4 µM | [7] 13.9 µM | [8] 36.6 µM | [10] 15.7 µM | [11] 17.7 µM | [12] 17.5 µM | [13] 21.5 µM | [14] 34.1 µM | [15] 21.3 µM
